Bridge positions count the residues as written; N and C are the ends. Peptide text beside a SMILES is read from it.
Biological target: T1, mouse GIRK1/4 (Mus musculus, UniProt P48545+P63250)
T1 construct: expressed in transfected cells; host or cells: 293T cells, transient calcium phosphate transfection, pCMV6 plasmid
T1 sequence (P63250 1-501): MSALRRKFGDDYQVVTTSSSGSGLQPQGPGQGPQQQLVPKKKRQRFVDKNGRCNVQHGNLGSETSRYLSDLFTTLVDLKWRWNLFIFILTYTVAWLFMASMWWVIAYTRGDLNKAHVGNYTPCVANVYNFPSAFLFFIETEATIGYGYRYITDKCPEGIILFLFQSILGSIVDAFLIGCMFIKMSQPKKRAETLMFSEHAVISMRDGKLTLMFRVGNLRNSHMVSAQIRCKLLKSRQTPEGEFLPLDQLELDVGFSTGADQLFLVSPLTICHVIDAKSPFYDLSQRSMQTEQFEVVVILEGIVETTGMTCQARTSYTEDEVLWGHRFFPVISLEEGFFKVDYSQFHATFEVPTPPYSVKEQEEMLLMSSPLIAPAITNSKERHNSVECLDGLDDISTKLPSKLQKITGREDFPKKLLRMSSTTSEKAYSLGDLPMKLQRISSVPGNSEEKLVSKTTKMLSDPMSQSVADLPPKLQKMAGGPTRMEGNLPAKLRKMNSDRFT
T1 sequence (P48545 1-419): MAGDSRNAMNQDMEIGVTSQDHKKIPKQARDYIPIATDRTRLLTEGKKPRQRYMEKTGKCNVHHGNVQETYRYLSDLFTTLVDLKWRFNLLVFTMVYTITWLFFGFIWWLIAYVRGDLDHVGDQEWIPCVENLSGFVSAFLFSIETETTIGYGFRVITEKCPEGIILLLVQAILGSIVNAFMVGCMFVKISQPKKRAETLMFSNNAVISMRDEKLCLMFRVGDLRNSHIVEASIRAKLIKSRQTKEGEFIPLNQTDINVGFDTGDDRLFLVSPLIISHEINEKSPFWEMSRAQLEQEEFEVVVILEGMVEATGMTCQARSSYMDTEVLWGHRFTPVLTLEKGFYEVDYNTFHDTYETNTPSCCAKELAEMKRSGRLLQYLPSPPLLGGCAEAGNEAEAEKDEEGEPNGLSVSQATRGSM
Assay: Whole-cell patch-clamp of GIRK1/4 in transfected 293T cells
Assay type: cell-based
Settings: 293T cells transiently expressing mouse GIRK1/4, high K+ Tyrode solution (Fig 7); read-out: IC50, GIRK1/4 conductance
Excerpt: The cDNAs for rat ROMK and mouse GIRK1, 2, and 4 were generously donated by Drs Mikio Hayashi (Kansai Medical University) and David Weaver (Vanderbilt University). The ROMK channels were stably expressed by a cell line, 208–4, which was transduced with lentiviral vectors coexpressing the channel and green fluorescent protein (GFP) as described previously. The GIRK genes, cloned in a pCMV6 plasmid (Origene Technologies Inc, Rockville, MD), were transiently expressed in 293T cells with calcium phosphate transfection. GIRK channel currents were recorded 24 h after transfection.
Cells grown on small cover glasses (3 × 18 mm) were placed in a recording chamber. Whole-cell currents were recorded in Tyrode solution using an Axopatch 200B amplifier (Axon Instruments, Foster City, CA) at 25°C. Tyrode solution contained (in mM): NaCl 140, KCl 5.4, NaH2PO4 0.33, CaCl2 2, MgCl2 1, HEPES 5, and glucose 5.5 (pH 7.4 adjusted with NaOH). […] Whole-cell currents were recorded 60 sec after the peptide application and those from 100 to 300 msec of the step pulses were averaged. […] Whole-cell conductance was calculated as the slope of the current-voltage (I-V) relationship from -140 mV to -100 mV and normalized to the initial value (0 μM TPN), in which BaCl2-resistant current was subtracted and indicted as a percentage.

## CC[C@H](C)[C@@H]1NC(=O)[C@H](CCCNC(=N)N)NC(=O)[C@H](CCCNC(=N)N)NC(=O)[C@H](CC(N)=O)NC(=O)[C@@H]2CSSC[C@@H](C(=O)NCC(=O)N[C@@H](CCCCN)C(=O)N[C@@H](CCCCN)C(N)=O)NC(=O)[C@H](CCCCN)NC(=O)[C@H](CCCCN)NC(=O)[C@H](Cc3c[nH]c4ccccc34)NC(=O)[C@H](CSSC[C@H](NC(=O)[C@H](CC(C)C)NC(=O)[C@H](C)N)C(=O)N[C@@H](CC(N)=O)C(=O)N2)NC(=O)[C@H](CCC(N)=O)NC(=O)[C@H](Cc2c[nH]cn2)NC(=O)[C@@H]2CCCN2C(=O)[C@H]([C@@H](C)CC)NC1=O [Peptide 2, TPN-RQ] (H-ALCNCNRRIIPHQCWKKCGKK-NH2; disulfide 3-14, 5-18)
  IC50: 1.25 µM
